Data as given in patent publication US20240025919A1, “AZA-TETRACYCLIC OXAZEPINE COMPOUNDS AND USES THEREOF” (Genentech, Inc., priority 2022, published 2024).
Like-named read-outs stand apart in the source and are kept apart here.

Legend:
[1] = test system: H1975 (KRAS wild type human lung adenocarcinoma cell line); test: KRAS 3D-Cell Proliferation Assay, H1975 (CellTiter-Glo 3D, 7 days); format: cell-based; details: H1975 3D culture, read-out: Prolif H1975 3D ATP IC50
Protocol: (§1) Example 503: KRAS 3D-Cell Proliferation Assays. Cellular potencies of compounds are assessed by evaluating inhibition of proliferation in 3D cultures of homozygous mutant KRAS G12D human pancreatic cell lines (AsPC-1 and HPAC) as compared to a KRAS wild type human lung adenocarcinoma cell line (PC-9 and/or H1975). Cells are seeded into 384-well black round-bottom, ultra-low attachment assay plates in 50 uL cell growth medium (RPMI-1640 with 10% fetal bovine serum and 2 mM L-glutamine). After overnight incubation at 37° C. and 5% CO2, compounds solubilized in DMSO are added as dilution series to the wells in a total volume of 150 nL (0.3% DMSO final). The cells are incubated for 7 days at 37° C. and 5% CO2. Cell proliferation is quantitated by addition of 40 uL/well of CellTiter-GloO 3D (Promega), and the well contents are mixed 20× at high speed using liquid handling automation workstation (Bravo with 384-well head) and centrifuged at 1500 rpm for 2 minutes to eliminate bubbles. This reagent in combination with mechanical disruption releases the cellular ATP to promote activity in a luciferase-based enzyme/substrate chemiluminescent detection system. After a 30-minute incubation under ambient conditions with shaking and an additional 10 minutes without shaking, the luminescence is read on a plate reader (e.g. EnVision [PerkinElmer]). The results are normalized to percent inhibition based on the following control samples: DMSO (0% inhibition) and 1 uM staurosporine (100% inhibition). The normalized luminescence results are plotted against compound concentration, and the data are fit to a 4-parameter Hill equation to determine the IC50 values.

KRAS G12D = KRAS G12D (Homo sapiens (Human), UniProt P01116, G12D); test: KRAS G12D LoEnz Biochemical Assay, BODIPY-GDP Exchange TR-FRET (SOS1-mediated nucleotide exchange); details: read-out: KRas (G12D) GDP HTRF IC50
KRAS G12D, sequence (P01116-2 other isoform, or with tags, fused parts or gaps G12D): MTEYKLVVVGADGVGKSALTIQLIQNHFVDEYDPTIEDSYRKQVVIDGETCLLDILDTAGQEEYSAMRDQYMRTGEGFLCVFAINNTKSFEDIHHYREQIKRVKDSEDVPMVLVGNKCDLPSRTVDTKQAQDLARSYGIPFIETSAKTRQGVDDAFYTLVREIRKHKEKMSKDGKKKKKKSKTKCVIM

KRAS WT [2] = molecular target: T1, KRAS WT (Homo sapiens (Human), UniProt P01116); test: KRAS WT Biochemical Assay, BODIPY-GDP Exchange TR-FRET (Example 502; 0.06 nM KRAS WT, 15 nM GDP, 300 nM SOS1, 120-minute incubation); details: read-out: KRas HTRF IC50
T1 sequence (P01116-2 other isoform, or with tags, fused parts or gaps): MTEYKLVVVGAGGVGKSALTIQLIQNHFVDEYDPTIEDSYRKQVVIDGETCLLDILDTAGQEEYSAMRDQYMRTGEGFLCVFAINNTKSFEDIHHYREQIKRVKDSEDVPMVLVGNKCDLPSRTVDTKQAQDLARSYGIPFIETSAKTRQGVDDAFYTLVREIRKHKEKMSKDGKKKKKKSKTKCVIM
Method in brief: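 Biotin-tagged recombinant KRAS WT (0.06 nM) preloaded with 15 nM GDP and Tb-streptavidin, 10 min RT, then exchange started with 300 nM SOS1 plus 300 nM BODIPY-GDP in HEPES pH 7.5 buffer with MgCl2. TR-FRET 520/490 ratio read after 120 min; normalized to DMSO and full-inhibition control; IC50 from 4-parameter fit.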

[3] = test system: HPAC (homozygous mutant KRAS G12D human pancreatic cell line); test: KRAS 3D-Cell Proliferation Assay, HPAC (CellTiter-Glo 3D, 7 days); format: cell-based; details: HPAC 3D culture, read-out: Prolif HPAC 3D ATP IC50
Protocol: as §1

KRAS WT [4] = molecular target: T1, KRAS WT; test: KRAS WT Biochemical Assay, BODIPY-GDP Exchange TR-FRET (Example 501; 3 nM KRAS WT, 3 nM SOS1, 60-minute incubation)
Method in brief: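 SOS1-mediated exchange assay: 3 nM biotin-KRAS WT with terbium-streptavidin, started with 3 nM SOS1 and 300 nM BODIPY-GDP, HEPES pH 7.5 with MgCl2. TR-FRET (520/490 nm) read after 60 min; normalized to DMSO and full-inhibition control, IC50 from 4-parameter Hill fit.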

[5] = read-out: KRas(wt) GDP HTRF IC50

Structure (SMILES) | IC50 [1] [nM] | IC50 (KRAS G12D) [nM] | IC50 (KRAS WT [2]) [nM] | IC50 ([1]; Homo sapiens, NCI-H1975, 168 h) [nM] | IC50 [3] [nM] | IC50 ([3]; Homo sapiens, HPAC, 168 h) [nM] | IC50 (KRAS WT [4]; read-out: KRas HTRF IC50) [nM] | IC50 (KRAS WT [4]; [5]) [nM]
C[C@@H]1Oc2nc(-c3c(Cl)c(N)c(F)c(F)c3C(F)(F)F)c(F)c3nc(OC[C@@]45CCCN4C[C@H](F)C5)nc(c23)N2C[C@H]3CC[C@H](N3)[C@@H]12 (atropisomer, axis not shown; (aS)) [Compound 106, 2-Chloro-5,6-difluoro-3-((5S,5aS,6S,9R)-1-fluoro-12-(((2R,7aS)-2-fluorotetrahydro-1H-pyrrolizin-7a(5H)-yl)methoxy)-5-methyl-5a,6,7,8,9,10-hexahydro-5H-4-oxa-3,10a,11,13,14-pentaaza-6,9-methanonaphtho[1,8-ab]heptalen-2-yl)-4-(trifluoromethyl)aniline] | 622 | – | – | – | – | – | – | –
Cc1c(F)c(N)cc(-c2nc3c4c(nc(OC[C@H]5COC[C@H]6CCCN65)nc4c2F)N2C[C@H]4CC[C@H](N4)[C@H]2[C@H](C)O3)c1C(F)(F)F (single isomer, unassigned) [121 (isomer 1)] | – | 0.68 | 108 | 1340 | – | – | – | –
Cc1c(F)c(N)cc(-c2nc3c4c(nc(OC[C@H]5CC[C@@H]6CN(C)C(=O)CN56)nc4c2F)N2C[C@H]4CC[C@H](N4)[C@H]2[C@H](C)O3)c1C(F)(F)F (single isomer, unassigned) [131 (isomer 4)] | – | 1.14 | 195 | – | 90 | – | – | –
Cc1c(F)c(N)cc(-c2nc3c4c(nc(OC[C@@]56CCCN5C[C@H](F)[C@@H]6F)nc4c2F)N2C[C@H]4CC[C@H](N4)[C@H]2[C@H](C)O3)c1C(F)(F)F (single isomer, unassigned) [143 (isomer 3)] | – | 0.43 | 47.3 | 1090 | – | – | – | –
Cc1c(F)c(N)cc(-c2nc3c4c(nc(OC[C@H]5C[C@@H]6COCCN65)nc4c2F)N2C[C@H]4CC[C@H](N4)[C@H]2[C@H](C)O3)c1C(F)(F)F (single isomer, unassigned) [159 (diast. 1)] | – | 0.28 | 64 | 4310 | – | – | – | –
C[C@@H]1Oc2nc(-c3cc(N)c(F)cc3[C@H](C)C(F)F)c(F)c3nc(OC[C@@]45CCCN4C[C@H](F)C5)nc(c23)N2C[C@H]3CC[C@H](N3)[C@@H]12 (single isomer, unassigned) [181 (isomer 1)] | – | 159 | 10900 | – | – | 2000 | – | –
CC(c1cc(F)c(N)cc1-c1nc2c3c(nc(OC[C@@]45CCCN4C[C@H](F)C5)nc3c1F)N1C[C@H]3CC[C@H](N3)[C@H]1[C@H](C)O2)C(F)F (single isomer, unassigned) [181 (isomer 2)] | – | 50.4 | – | 7260 | – | 903 | 3030 | –
Cc1c(F)c(N)cc(-c2nc3c4c(nc(OC[C@@]56CCCN5C[C@H](F)C6)nc4c2F)N2C[C@H]4CC[C@H](N4)[C@H]2[C@H](C(F)F)O3)c1C(F)(F)F (single isomer, unassigned) [238 (isomer 1)] | – | 7700 | – | – | – | 2000 | 3810 | –
Cc1nc(N)cc(-c2nc3c4c(nc(OC[C@]56CCN5CC(F)(F)C6)nc4c2F)N2C[C@H]4CC[C@H](N4)[C@H]2[C@H](C(F)(F)F)O3)c1C(F)(F)F (single isomer, unassigned) [252 (isomer 2)] | – | 5.89 | – | 20000 | – | – | 159 | –
Cc1c(F)c(N)cc(-c2nc3c4c(nc(OC[C@@]56CCN(C)C5COC6)nc4c2F)N2C[C@H]4CC[C@H](N4)[C@H]2[C@H](C)O3)c1C(F)(F)F (single isomer, unassigned) [258 (isomer 1)] | – | 0.09 | – | – | – | 5 | 14.9 | –
Cc1nc(N)cc(-c2nc3c4c(nc(OC[C@H]5N(C)C[C@@]56CC6(F)F)nc4c2F)N2C[C@H]4CC[C@H](N4)[C@H]2[C@H](C(F)(F)F)O3)c1C(F)(F)F (single isomer, unassigned) [262 (isomer 2)] | – | 7.02 | – | 20000 | – | – | 186 | –
Cc1c(F)c(N)cc(-c2nc3c4c(nc(OC[C@@H]5C[C@@H](F)[C@H]6CCCN56)nc4c2F)N2C[C@H]4CC[C@H](N4)[C@H]2[C@H](C)O3)c1C(F)(F)F (single isomer, unassigned) [Compound 160 (diast. 1)] | – | 0.14 | 31.3 | 1000 | – | – | – | –
CCc1cccc2cc(O)cc(-c3nc4c5c(nc(OC[C@@]67CCCN6C[C@H](F)C7)nc5c3F)N3C[C@H]5CC[C@H](N5)[C@H]3[C@H](C)O4)c12 [Compound 10, 5-ethyl-4-((5S,5aS,6S,9R)-1-fluoro-12-(((2R,7aS)-2-fluorotetrahydro-1H-pyrrolizin-7a(5H)-yl)methoxy)-5-methyl-5a,6,7,8,9,10-hexahydro-5H-4-oxa-3,10a,11,13,14-pentaaza-6,9-methanonaphtho[1,8-ab]heptalen-2-yl)naphthalen-2-ol] | – | 0.082 | 13.3 | – | – | – | – | 6.46
Cc1cc(-c2nc3c4c(nc(OC[C@@]56CCCN5C[C@H](F)C6)nc4c2F)N2C[C@H]4CC[C@H](N4)[C@H]2[C@H](C)O3)cc(N)c1F [Compound 13, 2-fluoro-5-((5S,5aS,6S,9R)-1-fluoro-12-(((2R,7aS)-2-fluorotetrahydro-1H-pyrrolizin-7a(5H)-yl)methoxy)-5-methyl-5a,6,7,8,9,10-hexahydro-5H-4-oxa-3,10a,11,13,14-pentaaza-6,9-methanonaphtho[1,8-ab]heptalen-2-yl)-3-methylaniline] | – | 30.7 | 1770 | – | – | – | – | 1540
C[C@@H]1Oc2nc(-c3cc(N)cc(F)c3C(F)(F)F)c(F)c3nc(OC[C@@]45CCCN4C[C@H](F)C5)nc(c23)N2C[C@H]3CC[C@H](N3)[C@@H]12 [Compound 17, 3-fluoro-5-((5S,5aS,6S,9R)-1-fluoro-12-(((2R,7aS)-2-fluorotetrahydro-1H-pyrrolizin-7a(5H)-yl)methoxy)-5-methyl-5a,6,7,8,9,10-hexahydro-5H-4-oxa-3,10a,11,13,14-pentaaza-6,9-methanonaphtho[1,8-ab]heptalen-2-yl)-4-(trifluoromethyl)aniline] | – | 0.133 | 1.05 | – | – | – | – | 0.559
Cc1c(F)c(N)cc(-c2nc3c4c(nc(OC[C@@H]5CC[C@H]6COCCN65)nc4c2F)N2C[C@H]4CC[C@H](N4)[C@H]2[C@H](C)O3)c1C(F)(F)F [Compound 31, 2-fluoro-5-((5S,5aS,6S,9R)-1-fluoro-12-(((6S,8aS)-hexahydro-1H-pyrrolo[2,1-c][1,4]oxazin-6-yl)methoxy)-5-methyl-5a,6,7,8,9,10-hexahydro-5H-4-oxa-3,10a,11,13,14-pentaaza-6,9-methanonaphtho[1,8-ab]heptalen-2-yl)-3-methyl-4-(trifluoromethyl)aniline] | – | 0.087 | 7.11 | – | – | – | – | 1.55
Cc1cc(N)c(F)c(-c2nc3c4c(nc(OC[C@@]56CCCN5C[C@H](F)C6)nc4c2F)N2C[C@H]4CC[C@H](N4)[C@H]2[C@H](C)O3)c1C(F)(F)F [Compound 34, 2-Fluoro-3-((5S,5aS,6S,9R)-1-fluoro-12-(((2R,7aS)-2-fluorotetrahydro-1H-pyrrolizin-7a(5H)-yl)methoxy)-5-methyl-5a,6,7,8,9,10-hexahydro-5H-4-oxa-3,10a,11,13,14-pentaaza-6,9-methanonaphtho[1,8-ab]heptalen-2-yl)-5-methyl-4-(trifluoromethyl)aniline] | – | 0.235 | 4.29 | – | – | – | – | 2.13
C=C1CN2CCC[C@@]2(COc2nc3c4c(nc(-c5cc(O)cc6cccc(CC)c56)c(F)c4n2)O[C@@H](C)[C@@H]2[C@@H]4CC[C@H](CN32)N4)C1 [Compound 80] | – | 0.068 | 3.48 | – | – | – | – | 3.39
